Assay results taken from patent publication US20230151017A1, “THERAPEUTIC AGENTS TARGETING GPR35” (PROMETHEUS BIOSCIENCES, INC., priority 2020, published 2023).

What follows are compounds tested against T1, Human GPR35 (Homo sapiens, UniProt Q9HC97) (assay: Beta-Arrestin Assay). Conditions: Human GPR35 expressing JumpIn 294S Tango U2OS cells; compounds overnight; LiveBLAzer-FRET B/G (CCF4-AM) readout.
T1 construct: Tango receptor fusion (protease cleavage site + Gal4-VP16 transcription factor); host or cells: Jump-In Tango U2OS cells
Format: cell-based
Description: Human GPR35 expressing JumpIn (Thermo Fisher) 294S Tango U2OS cells were plated in 384-well format in clear bottom plates at a cell density of 10,000 cells/well and allowed to adhere for 5 hours. Cells were then treated with serially diluted test compounds overnight. The next day, LiveBLAzer-FRET B/G (CCF4-AM) detection reagents were added, and cells were allowed to incubate for 4 hours in the dark at room temp before reading plates on a BioTek Cytation 5 plate reader. To determine EC50 values, data were fit to a four-parameter dose-response curves.

T1 sequence (Q9HC97 whole entry, the tested form may be a part): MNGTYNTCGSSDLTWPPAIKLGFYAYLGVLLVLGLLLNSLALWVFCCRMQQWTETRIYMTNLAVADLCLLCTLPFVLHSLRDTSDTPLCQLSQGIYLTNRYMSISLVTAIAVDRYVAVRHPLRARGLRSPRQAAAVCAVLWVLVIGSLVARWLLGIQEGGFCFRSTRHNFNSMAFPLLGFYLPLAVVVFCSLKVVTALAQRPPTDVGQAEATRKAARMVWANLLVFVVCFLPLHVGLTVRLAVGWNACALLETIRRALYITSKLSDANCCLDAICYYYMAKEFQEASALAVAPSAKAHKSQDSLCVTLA

SMILES | EC50 [nM]
CCOc1cc(-c2cc(O)cc(O)c2)ccc1-c1nc2[nH]nnc2c(=O)[nH]1 [Compound 111, 5-(3-Ethoxy-3′,5′-dihydroxy-[1,1′-biphenyl]-4-yl)-3,6-dihydro-7H-[1,2,3]triazolo[4,5-d]pyrimidin-7-one] | ≤ 1000
CCOc1cc(-c2cccc(CCc3noc(=O)[nH]3)c2)ccc1-c1nc2[nH]nnc2c(=O)[nH]1 [Compound 122, 3-(2-(3′-Ethoxy-4′-(7-oxo-6,7-dihydro-3H-[1,2,3]triazolo[4,5-d]pyrimidin-5-yl)-[1,1′-biphenyl]-3-yl)ethyl)-1,2,4-oxadiazol-5(4H)-one] | ≤ 1000
CCOc1cc(-c2ccc(CO)cc2)ccc1-c1nc2[nH]nnc2c(=O)[nH]1 [Compound 105, 5-(3-Ethoxy-4′-(hydroxymethyl)-[1,1′-biphenyl]-4-yl)-3,6-dihydro-7H-[1,2,3]triazolo[4,5-d]pyrimidin-7-one] | ≤ 1000
CCOc1cc(-c2cc(CCC(=O)O)cc(OCCN)c2)ccc1-c1nc2[nH]nnc2c(=O)[nH]1 [Compound 115, 3-(5-(2-aminoethoxy)-3′-ethoxy-4′-(7-oxo-6,7-dihydro-3H-[1,2,3]triazolo[4,5-d]pyrimidin-5-yl)-[1,1′-biphenyl]-3-yl)propanoic acid] | 1000 to 10000
CCOc1cc(-c2ccc(C(O)(O)C(F)(F)F)cc2)ccc1-c1nc2[nH]nnc2c(=O)[nH]1 [Compound 128, 5-(3-Ethoxy-4′-(2,2,2-trifluoro-1,1-dihydroxyethyl)-[1,1′-biphenyl]-4-yl)-3,6-dihydro-7H-[1,2,3]triazolo[4,5-d]pyrimidin-7-one] | ≤ 1000
CCOc1cc(-c2cccc(CCO)c2)ccc1-c1nc2[nH]nnc2c(=O)[nH]1 [Compound 103, 5-(3-Ethoxy-3′-(2-hydroxyethyl)-[1,1′-biphenyl]-4-yl)-3,6-dihydro-7H-[1,2,3]triazolo[4,5-d]pyrimidin-7-one] | 1000 to 10000
CCOc1cc(-c2ccc(C(N)=O)cc2)ccc1-c1nc2[nH]nnc2c(=O)[nH]1 [Compound 101, 3′-Ethoxy-4′-(7-oxo-6,7-dihydro-3H-[1,2,3]triazolo[4,5-d]pyrimidin-5-yl)-[1,1′-biphenyl]-4-carboxamide] | ≤ 1000
CCOc1cc(-c2ccc(O)c(O)c2)ccc1-c1nc2[nH]nnc2c(=O)[nH]1 [Compound 108, 5-(3-Ethoxy-3′,4′-dihydroxy-[1,1′-biphenyl]-4-yl)-3,6-dihydro-7H-[1,2,3]triazolo[4,5-d]pyrimidin-7-one] | ≤ 1000
CCOc1cc(-c2ccc(O)cc2O)ccc1-c1nc2[nH]nnc2c(=O)[nH]1 [Compound 110, 5-(3-Ethoxy-2′,4′-dihydroxy-[1,1′-biphenyl]-4-yl)-3,6-dihydro-7H-[1,2,3]triazolo[4,5-d]pyrimidin-7-one] | 1000 to 10000
CCOc1cc(-c2cc(O)cc(CCC(=O)O)c2)ccc1-c1nc2[nH]nnc2c(=O)[nH]1 [Compound 113, 3-(3′-Ethoxy-5-hydroxy-4′-(7-oxo-6,7-dihydro-3H-[1,2,3]triazolo[4,5-d]pyrimidin-5-yl)-[1,1′-biphenyl]-3-yl)propanoic acid] | ≤ 1000
CCOc1cc(-c2cc(O)cc(/C=C/C(=O)O)c2)ccc1-c1nc2[nH]nnc2c(=O)[nH]1 [Compound 112, (E)-3-(3′-ethoxy-5-hydroxy-4′-(7-oxo-6,7-dihydro-3H-[1,2,3]triazolo[4,5-d]pyrimidin-5-yl)-[1,1′-biphenyl]-3-yl)acrylic acid] | ≤ 1000
CCOc1cc(-c2cccc(CCC(=O)NO)c2)ccc1-c1nc2[nH]nnc2c(=O)[nH]1 [Compound 117, 3-(3′-Ethoxy-4′-(7-oxo-6,7-dihydro-3H-[1,2,3]triazolo[4,5-d]pyrimidin-5-yl)-[1,1′-biphenyl]-3-yl)-N-hydroxypropanamide] | 1000 to 10000
CCOc1cc(-c2cc(O)ccc2O)ccc1-c1nc2[nH]nnc2c(=O)[nH]1 [Compound 109, 5-(3-Ethoxy-2′,5′-dihydroxy-[1,1′-biphenyl]-4-yl)-3,6-dihydro-7H-[1,2,3]triazolo[4,5-d]pyrimidin-7-one] | ≤ 1000
CCOc1cc(-c2cccc(S(N)(=O)=O)c2)ccc1-c1nc2[nH]nnc2c(=O)[nH]1 [Compound 106, 3′-Ethoxy-4′-(7-oxo-6,7-dihydro-3H-[1,2,3]triazolo[4,5-d]pyrimidin-5-yl)-[1,1′-biphenyl]-3-sulfonamide] | 1000 to 10000
CCOc1cc(-c2cccc(/C=C3\SC(=O)NC3=O)c2)ccc1-c1nc2[nH]nnc2c(=O)[nH]1 [Compound 120, (Z)-5-((3′-Ethoxy-4′-(7-oxo-6,7-dihydro-3H-[1,2,3]triazolo[4,5-d]pyrimidin-5-yl)-[1,1′-biphenyl]-3-yl)methylene)thiazolidine-2,4-dione] | ≤ 1000
CCOc1cc(-c2cccc(Cc3c(C)[nH]oc3=O)c2)ccc1-c1nc2[nH]nnc2c(=O)[nH]1 [Compound 126, 4-((3′-Ethoxy-4′-(7-oxo-6,7-dihydro-3H-[1,2,3]triazolo[4,5-d]pyrimidin-5-yl)-[1,1′-biphenyl]-3-yl)methyl)-3-methylisoxazol-5(2H)-one] | ≤ 1000
CCOc1cc(-c2cccc(CCC(=O)NOC)c2)ccc1-c1nc2[nH]nnc2c(=O)[nH]1 [Compound 118, 3-(3′-Ethoxy-4′-(7-oxo-6,7-dihydro-3H-[1,2,3]triazolo[4,5-d]pyrimidin-5-yl)-[1,1′-biphenyl]-3-yl)-N-methoxypropanamide] | 1000 to 10000
CCOc1cc(-c2cc(O)cc(CCC(N)=O)c2)ccc1-c1nc2[nH]nnc2c(=O)[nH]1 [Compound 114, 3-(3′-Ethoxy-5-hydroxy-4′-(7-oxo-6,7-dihydro-3H-[1,2,3]triazolo[4,5-d]pyrimidin-5-yl)-[1,1′-biphenyl]-3-yl)propanamide] | ≤ 1000
CCOc1cc(-c2cccc(CC3OC(=O)NC3=O)c2)ccc1-c1nc2[nH]nnc2c(=O)[nH]1 (stereo not shown) [Compound 125, 5-((3′-Ethoxy-4′-(7-oxo-6,7-dihydro-3H-[1,2,3]triazolo[4,5-d]pyrimidin-5-yl)-[1,1′-biphenyl]-3-yl)methyl)oxazolidine-2,4-dione] | ≤ 1000
CCOc1cc(-c2cccc(CCCO)c2)ccc1-c1nc2[nH]nnc2c(=O)[nH]1 [Compound 102, 5-(3-Ethoxy-3′-(3-hydroxypropyl)-[1,1′-biphenyl]-4-yl)-3,6-dihydro-7H-[1,2,3]triazolo[4,5-d]pyrimidin-7-one] | ≤ 1000
CCOc1cc(-c2cccc(CCC(N)=O)c2)ccc1-c1nc2[nH]nnc2c(=O)[nH]1 [Compound 119, 3-(3′-Ethoxy-4′-(7-oxo-6,7-dihydro-3H-[1,2,3]triazolo[4,5-d]pyrimidin-5-yl)-[1,1′-biphenyl]-3-yl)propanamide] | 1000 to 10000
CCOc1cc(-c2cccc(C(O)(O)C(F)(F)F)c2)ccc1-c1nc2[nH]nnc2c(=O)[nH]1 [Compound 127, 5-(3-Ethoxy-3′-(2,2,2-trifluoro-1,1-dihydroxyethyl)-[1,1′-biphenyl]-4-yl)-3,6-dihydro-7H-[1,2,3]triazolo[4,5-d]pyrimidin-7-one] | ≤ 1000
CCOc1cc(-c2cccc(CC3SC(=O)NC3=O)c2)ccc1-c1nc2[nH]nnc2c(=O)[nH]1 (stereo not shown) [Compound 121, 5-((3′-Ethoxy-4′-(7-oxo-6,7-dihydro-3H-[1,2,3]triazolo[4,5-d]pyrimidin-5-yl)-[1,1′-biphenyl]-3-yl)methyl)thiazolidine-2,4-dione] | ≤ 1000
CCOc1cc(-c2cccc(CCC(=O)NS(=O)(=O)N(C)C)c2)ccc1-c1nc2[nH]nnc2c(=O)[nH]1 [Compound 123, N—(N,N-Dimethylsulfamoyl)-3-(3′-ethoxy-4′-(7-oxo-6,7-dihydro-3H-[1,2,3]triazolo[4,5-d]pyrimidin-5-yl)-[1,1′-biphenyl]-3-yl)propanamide] | ≤ 1000
CCOc1cc(-c2ccc(S(N)(=O)=O)cc2)ccc1-c1nc2[nH]nnc2c(=O)[nH]1 [Compound 107, 3′-Ethoxy-4′-(7-oxo-6,7-dihydro-3H-[1,2,3]triazolo[4,5-d]pyrimidin-5-yl)-[1,1′-biphenyl]-4-sulfonamide] | 1000 to 10000
CCOc1cc(-c2ccc(OCCN)c(CCC(=O)O)c2)ccc1-c1nc2[nH]nnc2c(=O)[nH]1 [Compound 116, 3-(4-(2-Aminoethoxy)-3′-ethoxy-4′-(7-oxo-6,7-dihydro-3H-[1,2,3]triazolo[4,5-d]pyrimidin-5-yl)-[1,1′-biphenyl]-3-yl)propanoic acid] | ≤ 1000
CCOc1cc(-c2cccc(CCc3nnn[nH]3)c2)ccc1-c1nc2[nH]nnc2c(=O)[nH]1 [Compound 124, 5-(3′-(2-(1H-Tetrazol-5-yl)ethyl)-3-ethoxy-[1,1′-biphenyl]-4-yl)-3,6-dihydro-7H-[1,2,3]triazolo[4,5-d]pyrimidin-7-one] | ≤ 1000
CCOc1cc(-c2cccc(CO)c2)ccc1-c1nc2[nH]nnc2c(=O)[nH]1 [Compound 104, 5-(3-Ethoxy-3′-(hydroxymethyl)-[1,1′-biphenyl]-4-yl)-3,6-dihydro-7H-[1,2,3]triazolo[4,5-d]pyrimidin-7-one] | ≤ 1000
